Data on seven molecules can be found in ChEMBL document CHEMBL2074330, “Identification of glutathione as a driving force and leukotriene C4 as a substrate for oatp1, the hepatic sinusoidal organic solute transporter” (J Biol Chem, 1998).

The target in series [1] is T1, Solute carrier organic anion transporter family member 1A1 (Rattus norvegicus, UniProt P46720).
T1 sequence (P46720 whole entry): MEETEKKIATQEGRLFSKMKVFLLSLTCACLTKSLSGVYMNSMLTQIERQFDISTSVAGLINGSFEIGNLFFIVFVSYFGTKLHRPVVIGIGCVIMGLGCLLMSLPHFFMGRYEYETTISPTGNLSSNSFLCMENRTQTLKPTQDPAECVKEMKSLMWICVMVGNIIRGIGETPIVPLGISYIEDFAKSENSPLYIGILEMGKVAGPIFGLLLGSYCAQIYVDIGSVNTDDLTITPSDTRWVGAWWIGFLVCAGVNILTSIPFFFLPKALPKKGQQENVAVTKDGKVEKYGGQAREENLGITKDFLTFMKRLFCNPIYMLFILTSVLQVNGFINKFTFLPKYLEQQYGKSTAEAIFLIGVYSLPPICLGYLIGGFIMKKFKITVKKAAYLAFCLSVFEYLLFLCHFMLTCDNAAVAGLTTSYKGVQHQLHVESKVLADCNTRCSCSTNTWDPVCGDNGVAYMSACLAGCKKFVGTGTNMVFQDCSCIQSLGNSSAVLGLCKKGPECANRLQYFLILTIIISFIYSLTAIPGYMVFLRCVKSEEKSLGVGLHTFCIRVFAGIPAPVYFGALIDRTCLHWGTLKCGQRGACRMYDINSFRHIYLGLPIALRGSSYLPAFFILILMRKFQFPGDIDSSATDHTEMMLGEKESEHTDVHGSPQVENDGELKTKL
Put plainly: TP_TRANSPORTER: inhibition of DNP-SG uptake (DNP-SG: 50 uM, Ouabain: 500 uM) in Xenopus laevis oocytes. On the set-up: scale not given: the % may be the effect or the level left. The following applies: probe DNP-SG, read-out: Activity. The series is classed as functional, cell-based, Oocyte.

For series [2], the target named is T1, Solute carrier organic anion transporter family member 1A1. In words: TP_TRANSPORTER: inhibition of LTC4 uptake (LTC4: 0.01uM, Ouabain: 500 uM) in Xenopus laevis oocytes. The series is classed as functional, cell-based, Oocyte. On the set-up: scale not given: the % may be the effect or the level left. Conditions: probe LTC4, read-out: Activity.
The target is the same in series [3]. Put plainly: TP_TRANSPORTER: inhibition of LTC4 uptake (LTC4: 0.01uM, DIDS: 250 uM) in Xenopus laevis oocytes. The series is classed as functional, cell-based, Oocyte. The following applies: probe LTC4, read-out: Activity. The arrangement: scale not given: the % may be the effect or the level left.
For series [4] the target is unchanged. Put plainly: TP_TRANSPORTER: inhibition of DNP-SG uptake (DNP-SG: 50 uM, DIDS: 250 uM) in Xenopus laevis oocytes. Conditions: probe DNP-SG, read-out: Activity. The series is classed as functional, cell-based, Oocyte. The arrangement: scale not given: the % may be the effect or the level left.
Series [5] shares this target. Put plainly: TP_TRANSPORTER: inhibition of LTC4 uptake (LTC4: 0.01uM, p-Chlorophenacyl-SG: 1000 uM) in Xenopus laevis oocytes. The class given is functional, cell-based, Oocyte. On the set-up: scale not given: the % may be the effect or the level left. Conditions: probe LTC4, read-out: Activity.
The target is the same in series [6]. Put plainly: TP_TRANSPORTER: inhibition of DNP-SG uptake (DNP-SG: 50 uM, p-Chlorophenacyl-SG: 1000 uM) in Xenopus laevis oocytes. The class given is functional, cell-based, Oocyte. The arrangement: scale not given: the % may be the effect or the level left. The following applies: probe DNP-SG, read-out: Activity.
The target is the same in series [7]. In words: TP_TRANSPORTER: inhibition of DNP-SG uptake (DNP-SG: 50 uM, BSP: 250 uM) in Xenopus laevis oocytes. The class given is functional, cell-based. On the set-up: scale not given: the % may be the effect or the level left. Conditions: oocyte.
For series [8] the target is unchanged. In words: TP_TRANSPORTER: inhibition of LTC4 uptake (LTC4: 0.01uM, BSP: 250 uM) in Xenopus laevis oocytes. The class given is functional, cell-based, Oocyte. The arrangement: scale not given: the % may be the effect or the level left. Conditions: probe LTC4, read-out: Activity.
For series [9] the target is unchanged. In words: TP_TRANSPORTER: inhibition of LTC4 uptake (LTC4: 0.01uM, DNP-SG: 1000 uM) in Xenopus laevis oocytes. The series is classed as functional, cell-based. On the set-up: scale not given: the % may be the effect or the level left. Conditions: oocyte.
Series [10] has the same target. Put plainly: TP_TRANSPORTER: inhibition of DNP-SG uptake (DNP-SG: 50 uM, Bilirubin ditaurate: 500 uM) in Xenopus laevis oocytes. The class given is functional, cell-based, Oocyte. The arrangement: scale not given: the % may be the effect or the level left. The following applies: probe DNP-SG, read-out: Activity.
Series [11] shares this target. Put plainly: TP_TRANSPORTER: inhibition of LTC4 uptake (LTC4: 0.01uM, Bilirubin ditaurate: 500 uM) in Xenopus laevis oocytes. The following applies: probe LTC4, read-out: Activity. The series is classed as functional, cell-based, Oocyte. On the set-up: scale not given: the % may be the effect or the level left.
Substrate in series [12]: CCCCC/C=C\C\C=C/C=C/C=C/[C@@H](SC[C@@H](NC(=O)CC[C@H](N)C(=O)O)C(=O)NCC(=O)O)[C@@H](O)CCCC(=O)O
Put plainly: (§1) TP_TRANSPORTER: uptake in Xenopus laevis oocytes. The class given is functional, cell-based, Oocyte.

Substrate in series [13]: N[C@@H](CCC(=O)N[C@H](CSc1ccc([N+](=O)[O-])cc1[N+](=O)[O-])C(=O)NCC(=O)O)C(=O)O
The series is described as §1. The series is classed as functional, cell-based, Oocyte.

In the case of `C[C@@H]1O[C@@H](O[C@H]2C[C@@H](O)[C@]3(CO)[C@H]4[C@H](O)C[C@]5(C)[C@@H](C6=CC(=O)OC6)CC[C@]5(O)[C@@H]4CC[C@]3(O)C2)[C@H](O)[C@H](O)[C@H]1O` [OUABAIN], the activity at 500 µM in [1] worked out at 61%; in series [2] it was 52%.

In the case of `O=S(=O)(O)c1cc(N=C=S)ccc1/C=C/c1ccc(NC=S)cc1S(=O)(=O)O`, the activity at 250 µM in series [3] stood at 25%; in series [4], 39%.

On to `NC(CCC(=O)N[C@@H](CSCC(=O)c1ccc(Cl)cc1)C(=O)NCC(=O)O)C(=O)O` (stereo partly drawn), for which the figures for the activity at 1000 µM in series [5] and in series [6] were 23% and 31%, respectively. Take `O=C1OC(c2ccc(O)c(S(=O)(=O)[O-])c2)(c2ccc(O)c(S(=O)(=O)[O-])c2)c2c(Br)c(Br)c(Br)c(Br)c21.[Na+].[Na+]` [SULFOBROMOPHTHALEIN SODIUM]: the Activity in series [7] is on record as < 2%. Besides, the activity at 250 µM in [8] is < 2%.

`N[C@@H](CCC(=O)N[C@H](CSc1ccc([N+](=O)[O-])cc1[N+](=O)[O-])C(=O)NCC(=O)O)C(=O)O` yielded an Activity in series [9] of 15%. Turning to `C=CC1=C(C)/C(=C/c2[nH]c(Cc3[nH]c(/C=C4\NC(=O)C(C)=C4C=C)c(C)c3CCC(=O)NCCS(=O)(=O)O)c(CCC(=O)NCCS(=O)(=O)O)c2C)NC1=O` [BILIRUBIN DITAURATE], the activity at 500 µM in series [10] came out at 6%; in [11], 4%.

B1: Solute carrier organic anion transporter family member 1A1 (Rattus norvegicus) (protein)
chain: MEETEKKIATQEGRLFSKMKVFLLSLTCACLTKSLSGVYMNSMLTQIERQFDISTSVAGLINGSFEIGNLFFIVFVSYFGTKLHRPVVIGIGCVIMGLGCLLMSLPHFFMGRYEYETTISPTGNLSSNSFLCMENRTQTLKPTQDPAECVKEMKSLMWICVMVGNIIRGIGETPIVPLGISYIEDFAKSENSPLYIGILEMGKVAGPIFGLLLGSYCAQIYVDIGSVNTDDLTITPSDTRWVGAWWIGFLVCAGVNILTSIPFFFLPKALPKKGQQENVAVTKDGKVEKYGGQAREENLGITKDFLTFMKRLFCNPIYMLFILTSVLQVNGFINKFTFLPKYLEQQYGKSTAEAIFLIGVYSLPPICLGYLIGGFIMKKFKITVKKAAYLAFCLSVFEYLLFLCHFMLTCDNAAVAGLTTSYKGVQHQLHVESKVLADCNTRCSCSTNTWDPVCGDNGVAYMSACLAGCKKFVGTGTNMVFQDCSCIQSLGNSSAVLGLCKKGPECANRLQYFLILTIIISFIYSLTAIPGYMVFLRCVKSEEKSLGVGLHTFCIRVFAGIPAPVYFGALIDRTCLHWGTLKCGQRGACRMYDINSFRHIYLGLPIALRGSSYLPAFFILILMRKFQFPGDIDSSATDHTEMMLGEKESEHTDVHGSPQVENDGELKTKL
B1: the Km in series [12] was found to be 0.27 µM; in series [13], 408 µM.
